Measured values reported in patent US20240285508A1, “METHOD AND COMPOSITION FOR IMPROVING THE APPEARANCE OF SKIN” (The Procter & Gamble Company, priority 2023, published 2024).
Values joined by “and” are separate entries in the source; they are usually repeats but may differ in a detail not shown here. Identical values can stand only once.

Tests used:
[1] = system: gelatin; test: Advanced Glycation End Product Assay (AGE Assay), yellowness (b*) readout; format: biochemical; conditions: 24 hours; for % Δb* (yellowness) from a treatment vs positive glycation control / Convert to % Δb* inhibition (100%-% Δb*) / Convert to % Δb* inhibition (100-% Δb*): samples 1-3
Method: (§1) The AGE Assay provides an in vitro method of determining how a test agent impacts glycation. In particular, a material of interest can be applied to gelatin, which acts as a surrogate for collagen (i.e., a heterogeneous mixture of high-average-molecular-mass, water-soluble proteins present in collagen), at neutral pH range. A glycating reagent is added to the gelatin matrix to initialize glycation reaction. The resulting AGEs detected by a spectrophotometer. When testing a material of interest, such as lactobionic acid and/or white water lily extract is added to the gelatin sample, it reacts with the proteins in the gelatin, much in the same way as it would with collagen. Glycation reaction will be initiated when glycating reagent is added into this material and gelatin matrix and will produce AGEs. A positive (pos) glycation control group is set up the same way as testing material groups to contain gelatin and glycating reagent but less any treatment material. The positive control group depicts how much glycation and yellowness can be formed without perturbation by any treatment material. The spectrophotometer detects the fluorescence intensity (“FLR”) or yellowness (b*) associated with the resulting AGEs, which can then be correlated to the amount of glycation that occurs in skin. Lower b* and FLR values correspond to less AGEs, and thus less glycation.
(§2) Three replicates of each test samples are prepared in a 96-well plate (e.g., a FALCON brand 96-well tissue culture plate or equivalent) at equal and defined volume. The plate(s) containing the test samples are placed in a standard cell culture incubator (e.g., THERMO SCIENTIFIC FORMA brand incubator available from Fisher Scientific, Waltham, MA or equivalent) and incubated for the duration of the test at 37° C. with 5% CO2 and 95% relative humidity. Fluorescence intensity (FLR) and yellowness are measured at the start of test (time=0) and monitored for 24 hours. To measure FLR or b*, the plate(s) containing the test samples are removed from the incubator and placed in a SPECTRAMAX Plus brand spectrophotometer (available from Molecular Devices, Sunnyvale, California) or equivalent. To detect fluorescence intensity (“FLR”), the spectrophotometer is set at 400/465 nm (ex/em). To detect yellowness (b*), the spectrophotometer is set to collect absorbance spectrum from 350 nm to 750 nm in 10 nm increments. The absorbance spectra from the yellowness measurement are then converted to L*a*b* values by a computer using suitable conversion software.
(§3) The change in fluorescence intensity (“ΔFLR”) is determined by comparing the FLR of a well at a sampling time point to the initial FLR at time=0. The change in yellowness (“Δb*”) at a particular time point is determined by comparing the initial b* value at time=0 to the b* value at the time point of interest. To determine the relative amount of glycation or yellowness formed due to a treatment effect compared to the positive glycation control group, which doesn't contain any active treatment, the ΔFLR and Δb* values from a treatment group is normalized against the corresponding values from the positive glycation control group (pos glycation) according to the following equation: […]
(§4) The test samples were prepared in triplicate for each testing group on a 96-well plate with 250 μl volume per well. Each well contains 2.25 mg gelatin (available from Sigma® as Catalog #G1393), the testing material(s) diluted to desired concentration, 40 mM DL-Glyceraldehyde (available from Sigma®, Catalog #G5001-5G), and a sufficient quantity of Dulbecco's phosphate buffered saline (“DPBS”) (available from Gibco's, Catalog #14190-144). The vehicle control contained 2.25 mg gelatin and a sufficient quantity of DPBS. The positive glycation control contained 2.25 mg gelatin, 40 mM DL-glyceraldehyde and DPBS.
(§5) The average glycation, ΔFLR, and yellowness, Δb*, were determined for each sample according to the AGE Assay described herein. The duration of the test was 24 hours. […]

[2] = system: gelatin; test: Advanced Glycation End Product Assay (AGE Assay), fluorescence intensity (FLR, glycation) readout; format: biochemical; conditions: 24 hours
Method: as §1, §2, §3, §4, §5

[3] = 0.101% lactobionic acid, Table 3
[4] = 0.101% lactobionic acid, Table 4, samples 1-3
[5] = 0.2% lactobionic acid, Table 2, samples 1-3

O=C(O)[C@H](O)[C@@H](O)[C@H](O[C@@H]1O[C@H](CO)[C@H](O)[C@H](O)[C@H]1O)[C@H](O)CO [LBA, lactobionic acid]
Mean % Δb* inhibition for each group ([1]; 0.1% LBA, Table 1): 27% | % Δb* (yellowness) from a treatment vs positive glycation control ([1]; 0.1% LBA, Table 1): 73% | Convert to % Δb* inhibition (100%-% Δb*) ([1]; 0.1% LBA, Table 1): 27% | Mean % Δb* inhibition for each group ([1]; 0.1% LBA, Table 5): 32% | % Δb* (yellowness) from a treatment vs positive glycation control ([1]; 0.1% LBA, Table 5): 68% and 69% and 67% | Convert to % Δb* inhibition (100-% Δb*) ([1]; 0.1% LBA, Table 5): 32% and 31% and 33% | Mean % Δb* inhibition for each group [1, 3]: 32% | % Δb* (yellowness) from a treatment vs positive glycation control [1, 3]: 68% | Convert to % Δb* inhibition (100-% Δb*) [1, 3]: 32% | Mean % Δb* inhibition for each group ([1]; 0.2% lactobionic acid, Table 1): 49% | % Δb* (yellowness) from a treatment vs positive glycation control ([1]; 0.2% lactobionic acid, Table 1): 50% and 53% and 51% | Convert to % Δb* inhibition (100%-% Δb*) ([1]; 0.2% lactobionic acid, Table 1): 50% and 47% and 49% | Mean % ΔFLR inhibition for each group ([2]; 0.1% LBA, Table 2): 24% | % ΔFLR (glycation) normalized vs positive glycation control ([2]; 0.1% LBA, Table 2, samples 1-3): 77% and 75% | Convert to % ΔFLR inhibition (100-% ΔFLR) ([2]; 0.1% LBA, Table 2, samples 1-3): 23% and 25% | Mean % ΔFLR inhibition for each group ([2]; 0.1% LBA, Table 6): 30% | % ΔFLR (glycation) normalized vs positive glycation ctrl ([2]; 0.1% LBA, Table 6, samples 1-3): 69% and 71% and 70% | Convert to % ΔFLR inhibition (100-% ΔFLR) ([2]; 0.1% LBA, Table 6, samples 1-3): 31% and 29% and 30% | Mean % ΔFLR inhibition for each group ([2]; 0.101% lactobionic acid, Table 4): 27% | % ΔFLR (glycation) normalized vs positive glycation control [2, 4]: 73% and 74% | Convert to % ΔFLR inhibition (100-% ΔFLR) [2, 4]: 27% and 26% | Mean % ΔFLR inhibition for each group ([2]; 0.2% lactobionic acid, Table 2): 44% | % ΔFLR (glycation) normalized vs positive glycation control [2, 5]: 55% and 56% | Convert to % ΔFLR inhibition (100-% ΔFLR) [2, 5]: 45% and 44%
